Data from PMC7664637, “In Vitro and In Silico Evaluation of Anticancer Activity of New Indole-Based 1,3,4-Oxadiazoles as EGFR and COX-2 Inhibitors” (Molecules, 2020).

Key:
[1] = system: A549 human lung adenocarcinoma cell line; assay: MTT cytotoxicity assay, A549; conditions: A549, 48 h, read-out: IC50 A549 Cell Line
Description: (§2) At the end of this period, supernatants were removed, and 100 μL DMSO was added to each well to solubilize the formazan crystals. The absorbance of the solution was determined on an Infinite M1000 plate reader (Tecan, Mannedorf, Switzerland) at a wavelength of 550 nm with background subtraction at 630 nm.

[2] = system: A375 human melanoma cell line; assay: MTT cytotoxicity assay, A375; conditions: A-375, 48 h, read-out: IC50 A375 Cell Line
Description: as §2

[3] = system: HCT116 human colorectal carcinoma cell line; assay: MTT cytotoxicity assay, HCT116; conditions: HCT-116, 48 h, read-out: IC50 HCT-116 Cell Line
Description: as §2

[4] = system: peripheral blood mononuclear cells (PBMCs); assay: MTT cytotoxicity assay, PBMCs (tumor selectivity); conditions: Homo sapiens, PBMC, 48 h, read-out: IC50 PBMCs
Description: as §2

[5] = system: Jurkat human leukemic T-cells; assay: MTT cytotoxicity assay, Jurkat cells (tumor selectivity); conditions: 48 h, read-out: IC50 Jurkat Cells
Description: as §2

HCT116 cells = assay: Detection of cell death, Hoechst 33342/annexin V/ethidium homodimer III staining; assay type: cell-based, human; conditions: 10 μM, 12 h
Description: The cells were then briefly washed twice with 1× binding buffer, a staining solution containing 50 μL of 1× binding buffer, 5 μL of FITC-Annexin V solution, 5 μL of ethidium homodimer III solution, and 5 μL of Hoechst 33342 solution and incubated for 15 min at room temperature in the dark. Then, cells were washed with 1× binding buffer and analyzed by a Biorevo Fluorescence BZ-9000 all-in-one fluorescence microscope (Keyence, Osaka, Japan). Numbers of healthy cells (Hoechst 33342), apoptotic cells (Annexin V), late apoptotic or necrotic cells (Annexin V and Ethidium homodimer III), and necrotic cells (Ethidium homodimer III) were counted, as previously described.
(B) A total of approximately 100 stained cells were selected randomly in each experiment of (A) and were classified into 4 types: “alive” (blue), “apoptosis” (green), “necrosis or late apoptosis” (both green and red), and “necrosis” (red). […] Data from three independent experiments are shown as means ± standard deviations and p values were determined using Student’s test.

EGFR = biological target: T1, EGFR (Homo sapiens, UniProt P00533); assay: Kinase profiling assay (ADP-Glo), EGFR; assay type: biochemical; conditions: 1 h, room temperature
T1 construct: purchased Promega Corporation
Description: (§1) The kinase profiling assay protocol was applied according to the manufacturer’s instructions (Promega Corporation, Madison, WI, USA) with modification. […] Then, the reaction of the kinase was performed using 2 µL of compound solution at varying concentrations (0.1–100 µM), 4 µL of kinase working stock, and 4 µL of ATP/substrate working stock in the 384-well plate. After 1 h of incubation at room temperature, the activity of kinase was detected using ADP-Glo kinase assay (Promega Corporation, Madison, WI, USA), and kinase inhibitory activity of compounds in dose–response mode was measured by an Infinite M1000 luminescence plate reader (Tecan, Groding, Austria).

HER2 = biological target: T2, HER2 (Homo sapiens, UniProt P04626); assay: Kinase profiling assay (ADP-Glo), HER2; assay type: biochemical; conditions: 1 h, room temperature
T2 construct: purchased Promega Corporation
Description: as §1

HER4 = biological target: T3, HER4 (Homo sapiens, UniProt Q15303); assay: Kinase profiling assay (ADP-Glo), HER4; assay type: biochemical; conditions: 1 h, room temperature
T3 construct: purchased Promega Corporation
Description: as §1

IGF1R = biological target: T4, IGF1R (Homo sapiens, UniProt P08069); assay: Kinase profiling assay (ADP-Glo), IGF1R; assay type: biochemical; conditions: 1 h, room temperature
T4 construct: purchased Promega Corporation
Description: as §1

InsR = biological target: T5, InsR (Homo sapiens, UniProt P06213); assay: Kinase profiling assay (ADP-Glo), InsR; assay type: biochemical; conditions: 1 h, room temperature
T5 construct: purchased Promega Corporation
Description: as §1

KDR = biological target: T6, KDR (Homo sapiens, UniProt P35968); assay: Kinase profiling assay (ADP-Glo), KDR; assay type: biochemical; conditions: 1 h, room temperature
T6 construct: purchased Promega Corporation
Description: as §1

PDGFRα = biological target: T7, PDGFRα (Homo sapiens, UniProt P16234); assay: Kinase profiling assay (ADP-Glo), PDGFRα; assay type: biochemical; conditions: 1 h, room temperature
T7 construct: purchased Promega Corporation
Description: as §1

PDGFRβ = biological target: T8, PDGFRβ (Homo sapiens, UniProt P09619); assay: Kinase profiling assay (ADP-Glo), PDGFRβ; assay type: biochemical; conditions: 1 h, room temperature
T8 construct: purchased Promega Corporation
Description: as §1

COX-1 = biological target: T9, COX-1 (Ovis aries, UniProt P05979); assay: In vitro COX inhibition assay (COX (ovine/human) inhibitor screening kit), COX-1
T9 sequence (P05979 25-600): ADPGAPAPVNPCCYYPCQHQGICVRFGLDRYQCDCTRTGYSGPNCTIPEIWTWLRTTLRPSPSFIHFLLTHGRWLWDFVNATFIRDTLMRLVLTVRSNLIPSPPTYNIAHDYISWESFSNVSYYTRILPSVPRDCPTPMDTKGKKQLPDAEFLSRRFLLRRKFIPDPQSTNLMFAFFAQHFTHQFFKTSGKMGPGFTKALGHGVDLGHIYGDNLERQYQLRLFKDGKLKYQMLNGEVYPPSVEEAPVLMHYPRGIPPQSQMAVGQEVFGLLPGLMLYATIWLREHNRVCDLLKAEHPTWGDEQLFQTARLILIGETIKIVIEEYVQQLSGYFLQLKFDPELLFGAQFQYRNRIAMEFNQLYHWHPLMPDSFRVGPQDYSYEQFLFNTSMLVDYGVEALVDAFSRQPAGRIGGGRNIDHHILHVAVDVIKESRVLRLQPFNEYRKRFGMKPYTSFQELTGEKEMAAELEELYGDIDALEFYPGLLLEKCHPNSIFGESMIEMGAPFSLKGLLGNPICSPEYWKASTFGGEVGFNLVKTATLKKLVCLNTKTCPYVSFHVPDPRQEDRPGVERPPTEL
Description: Briefly, COX reactions were performed. […] The prostaglandins were quantified by ELISA.

T4 sequence (P08069 31-1367): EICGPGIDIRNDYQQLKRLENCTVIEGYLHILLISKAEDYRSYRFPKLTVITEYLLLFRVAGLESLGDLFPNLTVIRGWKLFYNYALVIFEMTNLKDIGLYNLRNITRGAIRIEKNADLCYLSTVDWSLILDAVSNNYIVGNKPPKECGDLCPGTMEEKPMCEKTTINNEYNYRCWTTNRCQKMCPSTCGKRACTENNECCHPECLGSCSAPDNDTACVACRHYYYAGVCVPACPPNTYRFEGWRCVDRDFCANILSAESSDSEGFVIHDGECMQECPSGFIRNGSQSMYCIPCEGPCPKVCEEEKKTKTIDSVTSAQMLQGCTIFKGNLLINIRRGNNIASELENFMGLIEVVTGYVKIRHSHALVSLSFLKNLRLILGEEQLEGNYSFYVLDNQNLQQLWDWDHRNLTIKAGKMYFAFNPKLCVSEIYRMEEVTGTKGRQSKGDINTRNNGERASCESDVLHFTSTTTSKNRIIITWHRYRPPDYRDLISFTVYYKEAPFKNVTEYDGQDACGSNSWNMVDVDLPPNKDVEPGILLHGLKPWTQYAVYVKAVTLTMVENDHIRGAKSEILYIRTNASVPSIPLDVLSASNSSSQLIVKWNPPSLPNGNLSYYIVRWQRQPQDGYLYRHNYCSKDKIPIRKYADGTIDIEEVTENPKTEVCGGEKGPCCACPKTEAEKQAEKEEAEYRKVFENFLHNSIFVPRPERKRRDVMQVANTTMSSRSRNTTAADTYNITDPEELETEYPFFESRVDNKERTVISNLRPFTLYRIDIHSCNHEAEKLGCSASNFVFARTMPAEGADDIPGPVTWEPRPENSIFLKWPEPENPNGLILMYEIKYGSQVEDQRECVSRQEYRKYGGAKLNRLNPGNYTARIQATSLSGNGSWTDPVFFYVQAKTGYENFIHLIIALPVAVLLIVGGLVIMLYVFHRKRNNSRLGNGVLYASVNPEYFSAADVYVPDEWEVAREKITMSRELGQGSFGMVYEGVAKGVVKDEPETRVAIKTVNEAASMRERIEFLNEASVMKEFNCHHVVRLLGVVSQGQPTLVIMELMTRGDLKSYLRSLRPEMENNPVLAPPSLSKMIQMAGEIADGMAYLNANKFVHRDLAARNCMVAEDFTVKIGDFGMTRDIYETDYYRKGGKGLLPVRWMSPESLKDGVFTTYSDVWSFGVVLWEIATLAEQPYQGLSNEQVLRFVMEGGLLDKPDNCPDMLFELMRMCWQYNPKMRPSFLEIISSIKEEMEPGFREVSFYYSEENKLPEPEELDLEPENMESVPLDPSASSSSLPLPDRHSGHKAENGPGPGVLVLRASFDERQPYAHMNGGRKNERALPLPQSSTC
T6 sequence (P35968 20-1356): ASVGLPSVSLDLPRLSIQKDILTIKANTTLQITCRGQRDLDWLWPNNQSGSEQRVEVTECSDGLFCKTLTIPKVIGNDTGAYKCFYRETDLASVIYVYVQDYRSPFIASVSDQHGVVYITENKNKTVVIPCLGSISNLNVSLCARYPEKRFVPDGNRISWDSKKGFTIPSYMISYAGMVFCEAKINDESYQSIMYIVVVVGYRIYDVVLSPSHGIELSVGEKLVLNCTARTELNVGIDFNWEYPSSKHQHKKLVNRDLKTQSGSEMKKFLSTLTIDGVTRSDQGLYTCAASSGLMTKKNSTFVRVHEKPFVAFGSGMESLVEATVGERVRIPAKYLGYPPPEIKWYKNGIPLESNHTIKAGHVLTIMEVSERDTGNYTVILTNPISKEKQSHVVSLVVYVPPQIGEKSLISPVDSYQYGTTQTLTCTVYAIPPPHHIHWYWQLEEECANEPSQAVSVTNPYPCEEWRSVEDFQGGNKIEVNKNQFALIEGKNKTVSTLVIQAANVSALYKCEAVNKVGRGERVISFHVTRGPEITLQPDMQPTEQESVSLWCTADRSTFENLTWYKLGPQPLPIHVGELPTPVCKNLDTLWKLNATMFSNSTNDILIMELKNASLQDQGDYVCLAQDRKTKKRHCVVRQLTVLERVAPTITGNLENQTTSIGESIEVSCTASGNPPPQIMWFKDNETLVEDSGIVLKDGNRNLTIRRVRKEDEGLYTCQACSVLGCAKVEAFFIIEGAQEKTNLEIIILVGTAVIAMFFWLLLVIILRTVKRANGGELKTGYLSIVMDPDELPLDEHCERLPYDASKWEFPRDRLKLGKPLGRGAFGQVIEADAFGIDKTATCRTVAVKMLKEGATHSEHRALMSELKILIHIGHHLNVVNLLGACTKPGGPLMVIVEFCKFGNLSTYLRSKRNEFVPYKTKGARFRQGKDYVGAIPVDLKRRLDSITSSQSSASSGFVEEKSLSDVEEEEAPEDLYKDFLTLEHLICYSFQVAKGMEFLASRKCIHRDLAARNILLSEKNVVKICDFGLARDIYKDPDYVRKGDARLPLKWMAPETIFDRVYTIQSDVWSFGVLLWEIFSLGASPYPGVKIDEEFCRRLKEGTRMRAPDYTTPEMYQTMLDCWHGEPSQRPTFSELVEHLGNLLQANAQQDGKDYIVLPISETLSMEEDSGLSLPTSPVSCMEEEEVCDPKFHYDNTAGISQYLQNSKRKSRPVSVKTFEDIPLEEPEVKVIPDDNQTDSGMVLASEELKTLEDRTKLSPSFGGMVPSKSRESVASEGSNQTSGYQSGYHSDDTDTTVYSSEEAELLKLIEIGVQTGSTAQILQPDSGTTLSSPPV
T5 sequence (P06213 28-1382): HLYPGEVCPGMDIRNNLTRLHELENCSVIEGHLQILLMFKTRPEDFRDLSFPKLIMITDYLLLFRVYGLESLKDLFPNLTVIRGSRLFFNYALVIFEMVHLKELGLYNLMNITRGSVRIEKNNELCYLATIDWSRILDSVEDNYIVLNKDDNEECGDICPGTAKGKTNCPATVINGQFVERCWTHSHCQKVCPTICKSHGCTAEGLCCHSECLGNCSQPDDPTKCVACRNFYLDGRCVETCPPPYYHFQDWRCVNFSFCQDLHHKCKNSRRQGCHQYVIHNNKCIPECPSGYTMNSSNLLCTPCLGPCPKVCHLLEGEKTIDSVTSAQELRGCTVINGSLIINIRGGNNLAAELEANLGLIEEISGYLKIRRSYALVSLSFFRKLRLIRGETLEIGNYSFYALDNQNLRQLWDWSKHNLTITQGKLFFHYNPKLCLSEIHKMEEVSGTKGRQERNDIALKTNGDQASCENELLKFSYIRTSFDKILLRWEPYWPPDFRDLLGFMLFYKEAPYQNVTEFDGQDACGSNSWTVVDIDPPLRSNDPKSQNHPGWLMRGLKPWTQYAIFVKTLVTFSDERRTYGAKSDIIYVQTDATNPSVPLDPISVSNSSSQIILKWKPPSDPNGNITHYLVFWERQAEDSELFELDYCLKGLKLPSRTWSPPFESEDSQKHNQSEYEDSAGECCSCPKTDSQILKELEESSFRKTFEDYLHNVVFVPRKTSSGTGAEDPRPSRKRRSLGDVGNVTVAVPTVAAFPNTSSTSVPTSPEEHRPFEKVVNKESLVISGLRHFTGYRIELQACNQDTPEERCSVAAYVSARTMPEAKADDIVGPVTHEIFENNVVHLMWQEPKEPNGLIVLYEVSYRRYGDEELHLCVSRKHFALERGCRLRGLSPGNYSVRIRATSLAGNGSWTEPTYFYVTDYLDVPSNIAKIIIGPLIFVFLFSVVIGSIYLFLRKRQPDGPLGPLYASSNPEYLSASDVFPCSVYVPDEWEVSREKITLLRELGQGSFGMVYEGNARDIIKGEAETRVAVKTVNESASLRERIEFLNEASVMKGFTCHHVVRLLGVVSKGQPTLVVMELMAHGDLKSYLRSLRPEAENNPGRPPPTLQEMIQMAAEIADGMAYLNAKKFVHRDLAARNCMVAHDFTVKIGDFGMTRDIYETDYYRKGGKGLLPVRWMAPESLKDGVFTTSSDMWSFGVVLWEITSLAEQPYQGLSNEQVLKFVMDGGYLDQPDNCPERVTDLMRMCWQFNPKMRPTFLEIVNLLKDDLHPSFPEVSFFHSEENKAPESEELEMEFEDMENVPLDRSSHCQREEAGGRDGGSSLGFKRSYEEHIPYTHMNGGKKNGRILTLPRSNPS
T8 sequence (P09619 33-1106): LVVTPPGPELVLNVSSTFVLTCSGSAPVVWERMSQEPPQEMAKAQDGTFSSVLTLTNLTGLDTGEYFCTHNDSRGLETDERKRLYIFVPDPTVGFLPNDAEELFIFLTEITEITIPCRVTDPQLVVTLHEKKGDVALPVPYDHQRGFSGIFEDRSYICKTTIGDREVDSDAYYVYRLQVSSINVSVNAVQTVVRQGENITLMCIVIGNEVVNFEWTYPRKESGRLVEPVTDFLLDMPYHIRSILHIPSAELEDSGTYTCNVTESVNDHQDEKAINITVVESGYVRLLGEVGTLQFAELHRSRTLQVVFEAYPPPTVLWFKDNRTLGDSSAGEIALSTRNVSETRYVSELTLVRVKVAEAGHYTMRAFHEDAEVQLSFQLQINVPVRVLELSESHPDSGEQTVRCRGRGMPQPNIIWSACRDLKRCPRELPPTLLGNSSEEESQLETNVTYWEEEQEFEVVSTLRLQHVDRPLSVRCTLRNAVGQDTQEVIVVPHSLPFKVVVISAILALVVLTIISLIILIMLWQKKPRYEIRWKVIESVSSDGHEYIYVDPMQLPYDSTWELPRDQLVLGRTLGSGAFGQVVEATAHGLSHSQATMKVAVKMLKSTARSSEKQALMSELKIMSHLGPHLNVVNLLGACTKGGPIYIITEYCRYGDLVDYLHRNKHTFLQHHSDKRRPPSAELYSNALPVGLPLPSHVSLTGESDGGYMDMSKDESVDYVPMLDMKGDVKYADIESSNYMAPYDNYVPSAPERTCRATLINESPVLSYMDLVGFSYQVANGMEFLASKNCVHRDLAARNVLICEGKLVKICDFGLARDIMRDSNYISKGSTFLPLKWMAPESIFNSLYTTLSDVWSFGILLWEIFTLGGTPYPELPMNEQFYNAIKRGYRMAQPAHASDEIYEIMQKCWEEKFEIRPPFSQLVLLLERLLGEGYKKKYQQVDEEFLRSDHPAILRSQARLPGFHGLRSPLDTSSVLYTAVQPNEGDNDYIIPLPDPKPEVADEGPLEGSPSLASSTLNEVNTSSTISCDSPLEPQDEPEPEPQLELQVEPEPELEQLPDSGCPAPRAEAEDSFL

With O=C(CSc1nnc(Cc2c[nH]c3ccccc23)o1)Nc1nc2ccc(Cl)cc2s1 [Compound 2b, 2-[(5-((1H-Indol-3-yl)methyl)-1,3,4-oxadiazol-2-yl)thio]-N-(6-chlorobenzothiazol-2-yl)acetamide] the IC50 [1] was 60.7 ± 9.48 µM, the IC50 [2] was 37.6 ± 5.62 µM and the IC50 [3] was > 100 µM.

With O=C(CSc1nnc(Cc2c[nH]c3ccccc23)o1)Nc1nc2ccc([N+](=O)[O-])cc2s1 [Compound 2f, 2-[(5-((1H-Indol-3-yl)methyl)-1,3,4-oxadiazol-2-yl)thio]-N-(6-nitrobenzothiazol-2-yl)acetamide] the IC50 [1] was > 100 µM, the IC50 [2] was > 100 µM and the IC50 [3] was > 100 µM.

Molecule O=C(CSc1nnc(Cc2c[nH]c3ccccc23)o1)Nc1nc2ccccc2s1 [Compound 2a, 2-[(5-((1H-Indol-3-yl)methyl)-1,3,4-oxadiazol-2-yl)thio]-N-(benzothiazol-2-yl)acetamide] has an IC50 [1] of 40.4 ± 7.74 µM, an IC50 [2] of 65.1 ± 10.1 µM and an IC50 [3] of 26.2 ± 1.75 µM. The IC50 [4] was > 300 µM and the IC50 [5] was 17.7 ± 3.59 µM.

In the case of O=C(CSc1nnc(Cc2c[nH]c3ccccc23)o1)Nc1nccs1 [Compound 2g, 2-[(5-((1H-Indol-3-yl)methyl)-1,3,4-oxadiazol-2-yl)thio]-N-(thiazol-2-yl)acetamide], the melting point is reported as 177.4 to 178.2 °C, the IC50 [1] is reported as > 100 µM and the IC50 [2] is reported as > 100 µM. For the same molecule, the IC50 [3] was > 100 µM.

With O=C(CSc1nnc(Cc2c[nH]c3ccccc23)o1)Nc1ncc([N+](=O)[O-])s1 [Compound 2h, 2-[(5-((1H-Indol-3-yl)methyl)-1,3,4-oxadiazol-2-yl)thio]-N-[5-nitrothiazol-2-yl]acetamide] the melting point was 233.9 to 234.5 °C, the IC50 [1] was > 100 µM and the IC50 [2] was > 100 µM. For the same molecule, the IC50 [3] was > 100 µM.

With O=C(CSc1nnc(Cc2c[nH]c3ccccc23)o1)Nc1nc2ccc(Br)cc2s1 [Compound 2c, 2-[(5-((1H-Indol-3-yl)methyl)-1,3,4-oxadiazol-2-yl)thio]-N-(6-bromobenzothiazol-2-yl)acetamide] the melting point was 240.6 to 241.5 °C, the IC50 [1] was 24.9 ± 1.96 µM and the IC50 [2] was 48.5 ± 5.78 µM. For the same molecule, the IC50 [3] was > 100 µM.

In the case of C#Cc1cccc(Nc2ncnc3cc(OCCOC)c(OCCOC)cc23)c1 [Erlotinib, reference compound], the “apoptosis (apoptotic cells)” value (HCT116 cells) is reported as 7.42%, the “late apoptotic or necrotic effects” value (HCT116 cells) is reported as 10.45% and the IC50 [1] is reported as 19.4 ± 2.38 µM. For the same molecule, the IC50 [2] was 23.8 ± 4.17 µM, the IC50 [4] was 45.7 ± 8.88 µM and the IC50 [5] was 9.47 ± 2.15 µM.

Molecule Cc1ccc2nc(NC(=O)CSc3nnc(Cc4c[nH]c5ccccc45)o3)sc2c1 [Compound 2d, 2-[(5-((1H-Indol-3-yl)methyl)-1,3,4-oxadiazol-2-yl)thio]-N-(6-methylbenzothiazol-2-yl)acetamide] has an IC50 [1] of 36.9 ± 5.43 µM, an IC50 [2] of 30.2 ± 3.12 µM and an IC50 [3] of 18.2 ± 1.19 µM. For the same molecule, the IC50 [4] was > 300 µM and the IC50 [5] was 21.1 ± 1.85 µM.

In the case of CCOc1ccc2nc(NC(=O)CSc3nnc(Cc4c[nH]c5ccccc45)o3)sc2c1 [Compound 2e, 2-[(5-((1H-Indol-3-yl)methyl)-1,3,4-oxadiazol-2-yl)thio]-N-(6-ethoxybenzothiazol-2-yl)acetamide], the “apoptosis (apoptotic cells)” value (HCT116 cells) is reported as 28.35%, the “late apoptotic or necrotic effects” value (HCT116 cells) is reported as 9.81% and the IC50 (EGFR) is reported as 2.8 ± 0.52 µM. For the same molecule, the IC50 (HER2) was > 30 µM, the IC50 (HER4) was 8.22 ± 1.64 µM and the IC50 (IGF1R) was > 30 µM. The IC50 (InsR) was 29.1 ± 4.66 µM, the IC50 (KDR) was > 30 µM and the IC50 (PDGFRα) was > 30 µM. It also gave an IC50 (PDGFRβ) of 6.16 ± 1.58 µM, an IC50 [1] of 9.62 ± 1.14 µM and an IC50 [3] of 6.43 ± 0.72 µM. The IC50 [4] was > 300 µM, the IC50 [5] was 6.45 ± 1.02 µM and the IC50 (COX-1) was 73.5 ± 2.12 µM.

With CCOC(=O)Cc1csc(NC(=O)CSc2nnc(Cc3c[nH]c4ccccc34)o2)n1 [Compound 2i, 2-[(5-((1H-Indol-3-yl)methyl)-1,3,4-oxadiazol-2-yl)thio]-N-[4-(ethoxycarbonylmethyl)thiazol-2-yl]acetamide] the melting point was 158 to 158.6 °C, the IC50 [1] was 71.9 ± 10.3 µM and the IC50 [2] was 95.9 ± 12.4 µM. The IC50 [3] was > 100 µM.
